From ChEMBL document CHEMBL1201862, “PubChem BioAssay data set” (2004)
Calls of active or inactive are those of the source.

How the values were obtained:
Cytochrome P450 2C9 = Cytochrome P450 2C9 (Homo sapiens, UniProt P11712); details: Potency
[1] = target: Scavenger receptor class B member 1 (Mus musculus, UniProt Q61009); assay: inhibitors of SR-BI mediated HDL lipid uptake, dose response, ldlA[mSR-BI] cells, fluorescence, cherry pick (AID 493194); assay type: functional, cell-based;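 also: cellular uptake of fluorescent DiI-labeled HDL measured as cell fluorescence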
Sequence of Scavenger receptor class B member 1 (Q61009 whole entry): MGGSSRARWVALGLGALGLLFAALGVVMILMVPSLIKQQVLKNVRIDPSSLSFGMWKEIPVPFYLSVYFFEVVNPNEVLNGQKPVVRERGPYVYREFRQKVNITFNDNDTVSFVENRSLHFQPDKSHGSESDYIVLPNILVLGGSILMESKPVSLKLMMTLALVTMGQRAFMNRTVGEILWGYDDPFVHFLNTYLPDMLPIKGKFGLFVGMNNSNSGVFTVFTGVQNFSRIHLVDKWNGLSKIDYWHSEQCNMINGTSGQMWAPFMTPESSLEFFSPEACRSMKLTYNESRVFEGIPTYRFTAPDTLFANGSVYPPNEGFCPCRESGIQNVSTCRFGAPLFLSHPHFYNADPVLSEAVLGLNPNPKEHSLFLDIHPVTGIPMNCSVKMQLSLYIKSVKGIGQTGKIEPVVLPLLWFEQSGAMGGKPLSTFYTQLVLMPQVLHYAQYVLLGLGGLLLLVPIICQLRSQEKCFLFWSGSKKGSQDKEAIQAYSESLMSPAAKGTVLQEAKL

[2] = target: T1, Voltage-dependent T-type calcium channel subunit alpha-1H (Homo sapiens, UniProt O95180); assay: Inhibitors of T-Type Calcium Channels. [Related pubchem assays (depositor defined):AID449739, AID463087, AID489005, AID493041, AID504579, AID504584, AID504619, AID504628]; assay type: functional
T1 sequence (O95180 whole entry): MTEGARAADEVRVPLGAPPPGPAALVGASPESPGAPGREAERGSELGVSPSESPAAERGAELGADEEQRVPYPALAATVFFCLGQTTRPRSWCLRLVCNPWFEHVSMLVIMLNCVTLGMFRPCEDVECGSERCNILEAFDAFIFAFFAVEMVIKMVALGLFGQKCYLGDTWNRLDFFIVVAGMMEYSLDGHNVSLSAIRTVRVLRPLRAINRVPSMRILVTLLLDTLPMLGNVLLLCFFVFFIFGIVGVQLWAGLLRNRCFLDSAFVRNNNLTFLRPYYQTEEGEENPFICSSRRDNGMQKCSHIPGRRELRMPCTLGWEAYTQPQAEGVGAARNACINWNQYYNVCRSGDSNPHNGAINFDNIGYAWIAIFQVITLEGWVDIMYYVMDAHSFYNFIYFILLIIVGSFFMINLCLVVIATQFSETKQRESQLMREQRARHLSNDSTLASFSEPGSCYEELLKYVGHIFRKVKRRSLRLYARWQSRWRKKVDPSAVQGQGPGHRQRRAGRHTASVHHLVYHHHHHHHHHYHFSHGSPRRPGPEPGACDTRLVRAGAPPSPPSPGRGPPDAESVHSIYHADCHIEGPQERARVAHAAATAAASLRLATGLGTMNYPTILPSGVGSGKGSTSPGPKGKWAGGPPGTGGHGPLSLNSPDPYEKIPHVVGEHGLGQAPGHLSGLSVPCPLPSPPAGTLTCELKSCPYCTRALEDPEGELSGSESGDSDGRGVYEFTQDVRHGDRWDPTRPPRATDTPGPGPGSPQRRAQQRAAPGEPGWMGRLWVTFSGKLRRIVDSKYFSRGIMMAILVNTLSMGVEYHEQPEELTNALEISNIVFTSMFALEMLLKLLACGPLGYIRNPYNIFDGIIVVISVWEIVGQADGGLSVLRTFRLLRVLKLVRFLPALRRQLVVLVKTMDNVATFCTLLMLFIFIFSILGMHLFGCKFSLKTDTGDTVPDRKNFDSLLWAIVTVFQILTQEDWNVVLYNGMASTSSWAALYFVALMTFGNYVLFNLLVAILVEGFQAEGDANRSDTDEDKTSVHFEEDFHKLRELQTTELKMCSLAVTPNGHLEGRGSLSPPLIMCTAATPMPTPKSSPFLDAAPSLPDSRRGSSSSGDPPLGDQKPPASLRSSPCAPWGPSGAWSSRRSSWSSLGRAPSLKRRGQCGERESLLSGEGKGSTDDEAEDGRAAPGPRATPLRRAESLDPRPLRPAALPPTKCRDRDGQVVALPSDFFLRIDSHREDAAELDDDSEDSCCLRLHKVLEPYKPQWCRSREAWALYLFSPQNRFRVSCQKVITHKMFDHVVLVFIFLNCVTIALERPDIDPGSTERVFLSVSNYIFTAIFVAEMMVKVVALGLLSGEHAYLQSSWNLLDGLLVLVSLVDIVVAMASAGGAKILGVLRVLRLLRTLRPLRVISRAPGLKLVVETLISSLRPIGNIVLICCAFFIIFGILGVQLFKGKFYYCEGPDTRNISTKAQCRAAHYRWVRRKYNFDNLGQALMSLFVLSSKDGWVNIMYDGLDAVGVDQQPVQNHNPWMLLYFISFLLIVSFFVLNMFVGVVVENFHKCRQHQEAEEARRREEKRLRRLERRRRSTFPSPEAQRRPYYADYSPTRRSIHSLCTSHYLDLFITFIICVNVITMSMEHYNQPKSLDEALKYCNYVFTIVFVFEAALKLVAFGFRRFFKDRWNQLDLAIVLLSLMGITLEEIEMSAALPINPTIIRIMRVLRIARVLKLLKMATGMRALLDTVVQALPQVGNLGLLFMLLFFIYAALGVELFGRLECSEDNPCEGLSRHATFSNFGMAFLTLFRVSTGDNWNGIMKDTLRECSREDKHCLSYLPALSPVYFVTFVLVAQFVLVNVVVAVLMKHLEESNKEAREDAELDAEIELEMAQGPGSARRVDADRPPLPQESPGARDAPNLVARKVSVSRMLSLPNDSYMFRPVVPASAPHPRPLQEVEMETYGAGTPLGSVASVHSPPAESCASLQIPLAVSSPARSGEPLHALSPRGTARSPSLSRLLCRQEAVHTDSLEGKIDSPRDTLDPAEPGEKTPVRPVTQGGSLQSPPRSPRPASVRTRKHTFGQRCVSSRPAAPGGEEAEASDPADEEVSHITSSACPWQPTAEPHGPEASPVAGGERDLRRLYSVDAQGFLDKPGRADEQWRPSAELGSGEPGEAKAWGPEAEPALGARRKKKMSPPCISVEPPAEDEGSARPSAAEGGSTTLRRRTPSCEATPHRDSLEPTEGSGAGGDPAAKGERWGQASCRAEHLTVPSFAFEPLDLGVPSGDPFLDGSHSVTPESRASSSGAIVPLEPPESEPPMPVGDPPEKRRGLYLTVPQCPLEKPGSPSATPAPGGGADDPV

[3] = target: T1, Voltage-dependent T-type calcium channel subunit alpha-1H; assay type: functional
Beta-lactamase [4] = target: T2, Beta-lactamase (Pseudomonas aeruginosa, UniProt Q79MP6); assay: IMP-1 metallo-beta-lactamase inhibitors, dose response, selectivity assay for VIM-2 inhibitor project, biochemical, epi-absorbance (AID 1920)
T2 sequence (Q79MP6 whole entry): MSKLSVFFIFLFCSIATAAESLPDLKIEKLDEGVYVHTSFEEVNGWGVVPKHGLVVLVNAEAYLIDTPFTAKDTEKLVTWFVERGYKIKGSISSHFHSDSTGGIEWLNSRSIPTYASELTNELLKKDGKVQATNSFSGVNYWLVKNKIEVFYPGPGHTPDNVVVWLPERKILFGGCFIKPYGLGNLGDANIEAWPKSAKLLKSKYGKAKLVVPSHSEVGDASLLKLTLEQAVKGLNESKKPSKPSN

[5] = target: Cyclin-dependent kinase 5/CDK5 activator 1 (Homo sapiens, UniProt Q00535); assay: CDK5/p35 kinase inhibitors, dose response, biochemical, cherry-picked samples, set 2 (AID 504545)
Beta-lactamase [6] = target: T2, Beta-lactamase; assay: […] counterscreen for selective VIM-2 inhibitors: dose response biochemical high throughput screening assay to identify inhibitors of IMP-1 metallo-beta-lactamase.
Beta-lactamase [7] = target: Beta-lactamase (Salmonella choleraesuis (strain SC-B67), UniProt Q5J463); assay: Epi-absorbance-based counterscreen for selective VIM-2 inhibitors: dose response biochemical high throughput screening assay to identify inhibitors of TEM-1 serine-beta-lactamase.
[8] = target: Neurotensin receptor type 1 (Homo sapiens, UniProt P30989); assay type: functional;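 also: Image-based confirmatory dose-response assay measuring agonist activity at NTR1; NTR1-expressing U2OS osteosarcoma cells imaged for beta-arrestin GFP spot formation; agonist potency where compounds increase beta-arrestin recruitment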
Sequence of Neurotensin receptor type 1 (P30989 whole entry): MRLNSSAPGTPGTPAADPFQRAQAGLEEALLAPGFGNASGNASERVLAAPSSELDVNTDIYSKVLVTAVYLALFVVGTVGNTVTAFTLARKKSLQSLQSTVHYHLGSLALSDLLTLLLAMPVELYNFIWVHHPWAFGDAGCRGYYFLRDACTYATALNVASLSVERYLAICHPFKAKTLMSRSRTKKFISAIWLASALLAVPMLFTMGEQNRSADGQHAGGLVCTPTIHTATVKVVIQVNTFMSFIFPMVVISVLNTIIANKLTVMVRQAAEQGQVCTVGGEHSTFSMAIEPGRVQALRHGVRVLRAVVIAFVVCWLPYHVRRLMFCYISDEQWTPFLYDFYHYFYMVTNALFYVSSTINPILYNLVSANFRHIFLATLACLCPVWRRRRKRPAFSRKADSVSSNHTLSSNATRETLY

Streptokinase A = target: T3, Streptokinase A (Streptococcus pyogenes serotype M1, UniProt P10520); assay: S. pyogenes streptokinase expression inhibitors, potency, dose response, plasminogen activation absorbance, OD405 (AID 1914); assay type: functional, Streptococcus pyogenes M1 GAS;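 also: secreted streptokinase activity via plasminogen activation per viability signal from cell pellet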
T3 sequence (P10520 whole entry): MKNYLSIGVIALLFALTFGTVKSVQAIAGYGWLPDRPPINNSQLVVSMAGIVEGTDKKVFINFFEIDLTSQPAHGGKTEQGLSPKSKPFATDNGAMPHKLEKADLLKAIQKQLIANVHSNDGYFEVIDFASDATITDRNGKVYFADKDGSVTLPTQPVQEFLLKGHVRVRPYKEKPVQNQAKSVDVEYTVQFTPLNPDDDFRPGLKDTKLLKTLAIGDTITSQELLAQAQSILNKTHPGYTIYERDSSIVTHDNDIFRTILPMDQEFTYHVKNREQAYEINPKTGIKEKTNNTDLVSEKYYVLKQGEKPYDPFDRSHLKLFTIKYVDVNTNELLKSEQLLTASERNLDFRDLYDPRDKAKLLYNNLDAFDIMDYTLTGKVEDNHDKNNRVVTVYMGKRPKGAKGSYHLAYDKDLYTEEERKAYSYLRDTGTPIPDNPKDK

Streptococcus = assay: Group A Streptococcus viability loss, dose response, counter-screen for streptokinase expression inhibitor project, luminescence, BacTiterGlo (AID 1915); assay type: functional, organism-based;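 also: potency for reduction of bacterial viability or growth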
[9] = tested on: Streptococcus sp. 'group A'; assay: growth inhibition of control SK(-) GAS strain, dose response, counter-screen for streptokinase expression inhibitor project, luminescence, kanamycin, BacTiterGlo, confirmation (AID 1900); assay type: functional, organism-based
[10] = target: T4, Calpain-2 catalytic subunit (Sus scrofa, UniProt P43367); assay: pig calpain II inhibitor potency, dose response, biochemical, fluorogenic peptide substrate (AID 1420); assay type: functional
T4 sequence (P43367 whole entry): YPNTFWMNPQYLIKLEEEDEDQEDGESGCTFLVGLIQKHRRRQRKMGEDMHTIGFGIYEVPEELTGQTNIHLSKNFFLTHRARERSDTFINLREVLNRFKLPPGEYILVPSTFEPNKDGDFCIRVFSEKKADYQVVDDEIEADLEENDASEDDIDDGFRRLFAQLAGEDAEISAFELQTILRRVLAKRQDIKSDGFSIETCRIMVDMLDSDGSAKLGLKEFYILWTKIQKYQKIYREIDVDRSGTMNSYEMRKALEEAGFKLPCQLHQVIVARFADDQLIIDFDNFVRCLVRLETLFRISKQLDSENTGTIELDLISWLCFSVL

[11] = target: T5, Histone-lysine N-methyltransferase NSD2 (Homo sapiens, UniProt O96028); assay type: biochemical
T5 sequence (O96028 whole entry): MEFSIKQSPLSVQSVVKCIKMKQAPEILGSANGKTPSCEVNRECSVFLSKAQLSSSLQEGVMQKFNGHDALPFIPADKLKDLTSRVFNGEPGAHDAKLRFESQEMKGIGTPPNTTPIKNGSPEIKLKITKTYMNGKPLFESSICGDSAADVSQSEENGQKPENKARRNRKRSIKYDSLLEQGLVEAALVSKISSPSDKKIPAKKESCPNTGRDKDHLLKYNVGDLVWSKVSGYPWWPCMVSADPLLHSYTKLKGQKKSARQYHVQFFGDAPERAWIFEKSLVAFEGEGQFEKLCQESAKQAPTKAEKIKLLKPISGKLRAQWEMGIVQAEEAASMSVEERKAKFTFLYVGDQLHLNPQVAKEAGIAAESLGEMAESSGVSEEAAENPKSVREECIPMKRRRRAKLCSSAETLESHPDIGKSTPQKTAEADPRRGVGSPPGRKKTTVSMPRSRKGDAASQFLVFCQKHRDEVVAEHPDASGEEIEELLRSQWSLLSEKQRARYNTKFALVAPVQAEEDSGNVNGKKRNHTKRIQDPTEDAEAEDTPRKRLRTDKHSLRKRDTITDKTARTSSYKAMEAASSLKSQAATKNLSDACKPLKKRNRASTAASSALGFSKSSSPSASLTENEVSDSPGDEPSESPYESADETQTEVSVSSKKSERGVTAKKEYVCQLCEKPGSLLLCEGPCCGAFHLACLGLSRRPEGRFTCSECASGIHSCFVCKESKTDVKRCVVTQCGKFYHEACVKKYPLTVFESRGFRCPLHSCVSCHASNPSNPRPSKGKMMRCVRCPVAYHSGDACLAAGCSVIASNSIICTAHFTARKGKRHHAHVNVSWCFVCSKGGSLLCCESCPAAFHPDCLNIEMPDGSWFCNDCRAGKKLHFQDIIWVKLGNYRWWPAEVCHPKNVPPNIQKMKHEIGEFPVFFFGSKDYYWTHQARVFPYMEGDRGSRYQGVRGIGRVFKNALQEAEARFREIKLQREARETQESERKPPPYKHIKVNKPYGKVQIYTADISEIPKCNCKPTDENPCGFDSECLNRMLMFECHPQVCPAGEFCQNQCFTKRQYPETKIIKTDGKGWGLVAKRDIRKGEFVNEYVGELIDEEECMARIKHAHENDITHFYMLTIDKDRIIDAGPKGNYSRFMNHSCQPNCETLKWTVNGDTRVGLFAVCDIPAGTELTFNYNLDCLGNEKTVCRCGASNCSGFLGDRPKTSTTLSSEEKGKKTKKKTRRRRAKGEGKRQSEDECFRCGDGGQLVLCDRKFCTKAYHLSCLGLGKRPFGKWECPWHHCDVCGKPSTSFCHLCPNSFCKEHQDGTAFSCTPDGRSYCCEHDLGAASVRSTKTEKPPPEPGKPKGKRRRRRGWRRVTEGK

[12] = target: Ras and Rab interactor 1/Tyrosine-protein kinase ABL1 (Homo sapiens, UniProt P00519+Q13671); assay type: functional;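 also: biochemical TR-FRET dose-response test measuring inhibition of binding between Rin1 and Abl proteins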
[13] = target: Peroxisome proliferator-activated receptor gamma/Nuclear receptor corepressor 2 (Homo sapiens, UniProt P37231+Q9Y618); assay type: functional
[14] = target: Photoreceptor-specific nuclear receptor (Homo sapiens, UniProt Q9Y5X4); assay type: functional;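 also: potency for compounds that break the NR2E3 corepressor complex and count as activators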
Cytochrome P450 3A4 = Cytochrome P450 3A4 (Homo sapiens, UniProt P08684); details: Potency;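 also: confirmatory qHTS run detecting inhibitors and substrates of CYP3A4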
[15] = HEp-2 cell cytotoxicity, dose response, cytotoxicity control for RSV inhibitor project, HTS (AID 2410); assay type: functional; details: human respiratory syncytial virus
[16] = Luminescence Cell-Based Dose Retest to Confirm Inhibitors of Cancer Stem Cells. [Related pubchem assays (depositor defined):AID2717, AID2721]; assay type: functional; details: Homo sapiens
[17] = target: T6, Sphingosine 1-phosphate receptor 4 (Homo sapiens, UniProt O95977); assay: Late stage fluorescence dose response cell-based screening assay for antagonists of the Sphingosine 1-Phosphate Receptor 4 (S1P4). [Related pubchem assays: 1524 (Confirmation screen (S1P4 antagonists).), 1510 (Primary screen (S1P4 antagonists).), 1853 (Summary AID (S1P4 antagonists).), 1692 (Dose response screen (S1P4 antagonists).)]; assay type: functional
T6 sequence (O95977 whole entry): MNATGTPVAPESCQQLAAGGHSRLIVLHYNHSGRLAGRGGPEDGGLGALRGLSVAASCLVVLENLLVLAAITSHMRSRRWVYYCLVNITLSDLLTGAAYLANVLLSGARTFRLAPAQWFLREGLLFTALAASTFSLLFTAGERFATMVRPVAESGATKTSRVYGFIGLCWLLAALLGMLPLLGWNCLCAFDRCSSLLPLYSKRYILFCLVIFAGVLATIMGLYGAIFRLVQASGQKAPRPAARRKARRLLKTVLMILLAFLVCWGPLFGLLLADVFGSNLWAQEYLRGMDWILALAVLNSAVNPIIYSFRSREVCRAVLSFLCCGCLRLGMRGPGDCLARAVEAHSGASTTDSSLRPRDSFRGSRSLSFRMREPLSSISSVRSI

[18] = microbe, parasite or virus in culture; assay type: functional; details: Mycobacterium tuberculosis
[19] = target: Heat shock protein HSP 90-alpha (Homo sapiens, UniProt P07900); assay type: functional, organism-based
[20] = control 3'UTR Renilla luciferase suppression, dose response, counter-screen for Shn3 inhibitor project, cell-based, Clone20-Shn3RL, cherry-picked (AID 624133); assay type: functional
[21] = Shn3 3'UTR reporter inhibitors, dose response, cell-based, Clone20 osteoblasts, firefly luciferase, cherry-picked (AID 624132); assay type: functional;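 also: firefly luciferase luminescence from reporter carrying the Shn3 3'UTR in osteoblasts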
Beta-galactosidase = Beta-galactosidase (Escherichia coli, UniProt Q8VNN2); assay: beta-galactosidase enzyme inhibitors and activators, dose response, artefact control for CCR6 antagonist project, biochemical, E. coli enzyme, set 3 (AID 504712); assay type: functional
Sequence of Beta-galactosidase (Q8VNN2 whole entry): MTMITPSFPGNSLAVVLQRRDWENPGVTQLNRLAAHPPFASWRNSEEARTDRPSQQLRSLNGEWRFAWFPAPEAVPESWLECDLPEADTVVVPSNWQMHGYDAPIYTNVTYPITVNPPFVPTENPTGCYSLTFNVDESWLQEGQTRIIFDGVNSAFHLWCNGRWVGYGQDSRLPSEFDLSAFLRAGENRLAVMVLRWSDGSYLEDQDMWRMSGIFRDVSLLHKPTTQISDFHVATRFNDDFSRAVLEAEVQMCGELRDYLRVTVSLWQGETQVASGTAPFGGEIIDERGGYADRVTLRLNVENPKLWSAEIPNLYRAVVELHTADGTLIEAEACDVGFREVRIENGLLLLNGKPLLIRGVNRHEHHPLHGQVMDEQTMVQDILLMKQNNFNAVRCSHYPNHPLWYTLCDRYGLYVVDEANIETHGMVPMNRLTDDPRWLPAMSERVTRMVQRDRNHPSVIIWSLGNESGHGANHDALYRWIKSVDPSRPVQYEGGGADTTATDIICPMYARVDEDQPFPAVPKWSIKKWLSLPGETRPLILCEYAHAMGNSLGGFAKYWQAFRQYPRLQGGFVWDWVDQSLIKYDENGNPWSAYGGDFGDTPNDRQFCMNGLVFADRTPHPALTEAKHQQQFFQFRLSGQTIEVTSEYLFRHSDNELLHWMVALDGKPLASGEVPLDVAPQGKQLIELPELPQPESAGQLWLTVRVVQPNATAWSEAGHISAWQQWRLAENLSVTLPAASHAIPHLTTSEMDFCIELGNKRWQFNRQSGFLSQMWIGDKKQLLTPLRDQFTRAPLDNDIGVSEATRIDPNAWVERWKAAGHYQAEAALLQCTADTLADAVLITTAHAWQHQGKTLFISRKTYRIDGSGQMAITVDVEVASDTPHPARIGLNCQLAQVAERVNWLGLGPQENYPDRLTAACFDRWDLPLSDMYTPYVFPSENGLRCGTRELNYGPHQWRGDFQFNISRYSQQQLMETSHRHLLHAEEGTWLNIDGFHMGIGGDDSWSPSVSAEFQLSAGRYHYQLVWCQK

[22] = target: T6, Sphingosine 1-phosphate receptor 4; assay: Fluorescence dose response cell-based high throughput screening assay for antagonists of the Sphingosine 1-Phosphate Receptor 4 (S1P4). [Related pubchem assays: 1524 (Confirmation in triplicates.), 1510 (Primary screen.)]; assay type: functional
[23] = HepG2 cell cytotoxicity, dose response, cytotoxicity control for Shn3 inhibitor project, CellTiter-Glo, cherry-picked (AID 624134); assay type: functional, cell-based
[24] = target: T7, Heat shock factor protein 1 (Mus musculus, UniProt P38532); assay: inhibition of MG132-induced HSE-luciferase signal, confirmation, cell-based, NIH3T3, luminescence, dose retest (AID 2382); assay type: functional;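 also: NIH3T3 fibroblasts with HSF1-driven luciferase reporter stressed by proteasome inhibitor MG132; luminescence from HSF1-driven luciferase expression after 8 hours of MG132 stress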
T7 sequence (P38532 whole entry): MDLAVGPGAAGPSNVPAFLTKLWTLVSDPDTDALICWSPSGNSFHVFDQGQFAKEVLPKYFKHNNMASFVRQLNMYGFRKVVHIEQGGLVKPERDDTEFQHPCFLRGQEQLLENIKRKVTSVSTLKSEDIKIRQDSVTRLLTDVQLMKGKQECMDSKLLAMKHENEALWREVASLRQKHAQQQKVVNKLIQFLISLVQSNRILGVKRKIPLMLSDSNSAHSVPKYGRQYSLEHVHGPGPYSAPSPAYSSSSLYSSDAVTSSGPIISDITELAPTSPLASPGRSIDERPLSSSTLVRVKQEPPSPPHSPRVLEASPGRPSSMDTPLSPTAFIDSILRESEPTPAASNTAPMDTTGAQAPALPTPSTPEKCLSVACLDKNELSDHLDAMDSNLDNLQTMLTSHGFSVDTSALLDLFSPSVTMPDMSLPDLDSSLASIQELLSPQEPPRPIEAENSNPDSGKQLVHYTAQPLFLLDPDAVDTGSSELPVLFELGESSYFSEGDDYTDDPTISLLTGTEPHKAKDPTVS

[25] = target: Sphingosine 1-phosphate receptor 1 (Homo sapiens, UniProt P21453); assay type: functional;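 also: Tango beta-arrestin reporter U2OS cells stimulated with S1P near its EC80; inhibitor potency meaning antagonism of receptor activation by the natural agonist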

Sequence of Cytochrome P450 2C9 (P11712 whole entry): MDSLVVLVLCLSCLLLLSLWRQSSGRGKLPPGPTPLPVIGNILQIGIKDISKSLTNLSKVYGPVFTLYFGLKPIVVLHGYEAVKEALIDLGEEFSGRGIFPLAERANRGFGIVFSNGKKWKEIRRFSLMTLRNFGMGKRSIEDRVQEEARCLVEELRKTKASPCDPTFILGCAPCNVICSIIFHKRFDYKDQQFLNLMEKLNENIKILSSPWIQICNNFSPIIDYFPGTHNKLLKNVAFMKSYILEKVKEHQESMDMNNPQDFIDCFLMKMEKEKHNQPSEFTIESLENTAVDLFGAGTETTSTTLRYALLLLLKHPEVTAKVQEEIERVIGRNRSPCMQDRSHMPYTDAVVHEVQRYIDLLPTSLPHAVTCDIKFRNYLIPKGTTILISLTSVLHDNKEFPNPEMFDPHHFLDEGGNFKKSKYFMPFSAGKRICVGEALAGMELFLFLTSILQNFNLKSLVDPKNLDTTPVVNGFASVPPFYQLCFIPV

C/C=C/OC(=O)NC(c1ccccc1)[C@@]1(C(=O)OCC)CCCC1=O (stereo partly specified)
AC50 (Cytochrome P450 2C9): 3.98 µM (inconclusive)

CC(C)OCCCNC(=O)c1ccc(C2SCC(=O)N2Cc2ccco2)cc1 (stereo unspecified)
AC50 [1]: 1 µM (active)

CC(C)(C)n1nnnc1CN1CCN(C(c2ccccc2)c2ccccc2)CC1
EC50 [2]: 7.64 µM (active) | EC50 [3]: 6.42 µM (active)

O=C1Nc2cc(C(=O)N3CCC(N4CCCCC4)CC3)ccc2S/C1=C\c1ccccc1
IC50 (Beta-lactamase [4]): > 59.6 µM (inactive) | AC50 [5]: 21.2 µM (active) | IC50 (Beta-lactamase [6]): > 59.6 µM (inactive) | IC50 (Beta-lactamase [7]): > 59.6 µM (inactive)

CC(C)C[C@H](NC(=O)c1[nH]cnc1C(=O)N[C@@H](C)c1ccccc1)C(=O)OCc1ccccc1
EC50 [8]: 5.4 µM (active) | EC50 (Streptokinase A): > 150 µM (inconclusive) | EC50 (Streptococcus): 40.7 µM (active) | EC50 [9]: 0.656 µM (active) | IC50 [10]: 5.23 µM (not active)

Oc1cc(OCc2ccccc2)ccn1
AC50 [11]: 11.5 µM (active) | IC50 [12]: 0.0261 µM (active) | IC50 [13]: 16.6 µM (not active) | IC50 [14]: > 39.8 µM (not active)

COc1ccc(OC)c(-c2ccccc2/C=N/NS(=O)(=O)c2ccc(C)cc2)c1
AC50 (Cytochrome P450 2C9): 7.94 µM (inconclusive) | AC50 (Cytochrome P450 3A4): 3.16 µM (inconclusive)

COc1ccc(-n2sc3c(c2=S)-c2cc(OC)ccc2NC3(C)C)cc1
CC50 [15]: 18.4 µM (active) | AC50 [16]: 2.53 µM (active) | AC50 [1]: 16.1 µM (active)

CCOc1cc(/C=C\[N+](=O)[O-])ccc1OCC(=O)Nc1ccccc1C
IC50 [17]: 1.8 µM (not active) | EC50 [8]: 9.86 µM (active) | CC50 [18]: > 40 µM (active) | AC50 [19]: 3.66 µM (active) | AC50 [20]: 4.63 µM (active) | AC50 [21]: < 0.26 µM (active) | IC50 (Beta-galactosidase): > 66.6 µM (inactive) | IC50 [22]: 0.913 µM (active) | EC50 (Streptokinase A): 4.73 µM (active) | AC50 [23]: 22.5 µM (active) | EC50 (Streptococcus): 12.3 µM (active) | EC50 [24]: 5.09 µM (active) | IC50 [25]: 18.8 µM (not active) | EC50 [9]: 7.34 µM (active)
